Data as given in patent US12692262B2, “Substituted ureas as orexin receptor agonists” (Merck Sharp & Dohme LLC, priority 2020, dated 2026).

Target: T1, human OX2R (Homo sapiens, UniProt O43614)
T1 construct: expressed in transfected cells; host or cells: CHO (Chinese hamster ovary) cells grown under G418 selection
T1 sequence (O43614 1-444): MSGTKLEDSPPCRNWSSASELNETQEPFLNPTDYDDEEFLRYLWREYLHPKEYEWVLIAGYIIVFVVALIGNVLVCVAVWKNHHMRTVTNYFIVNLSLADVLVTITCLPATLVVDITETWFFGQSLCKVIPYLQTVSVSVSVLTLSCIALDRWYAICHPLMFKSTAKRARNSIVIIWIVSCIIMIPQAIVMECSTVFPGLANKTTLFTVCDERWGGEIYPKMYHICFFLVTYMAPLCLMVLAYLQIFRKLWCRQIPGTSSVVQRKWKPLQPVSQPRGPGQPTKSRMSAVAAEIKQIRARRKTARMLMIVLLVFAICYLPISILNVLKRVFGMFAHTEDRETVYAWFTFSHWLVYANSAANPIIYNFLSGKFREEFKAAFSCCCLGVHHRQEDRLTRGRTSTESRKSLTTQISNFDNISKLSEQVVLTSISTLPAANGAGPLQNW
Experiment: IPOne (IP-1 accumulation) assay in CHO cells expressing human OX2R
Format: cell-based
Conditions: for EC50: CHO cells expressing human OX2R, IP-One assay, 2 h incubation, four parameter logistic fit, read-out: OX2R Potency, EC50; for % of maximum agonist effect (relative to Orexin A): percent effect vs mean max effect of a reference compound at 1 uM (100% activity vs Orexin A), human OX2R
How it was run: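 Agonist EC50 values come from the inflection point of four-parameter logistic curves. Read-out is IP-1 accumulation detected with lysis buffer plus D2 and AB-cryptate reagents (HTRF), in CHO cells engineered to express human OX2R.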

SMILES | EC50 [nM] | % of maximum agonist effect (relative to Orexin A) [%]
CCN(C(=O)N[C@@H](CCC(F)(F)F)C(F)(F)F)[C@H](C)c1cccc(-c2cc(OC)c3nc(C(F)(F)F)cn3c2)c1 [Example 27, 1-ethyl-3-((S)-1,1,1,5,5,5-hexafluoropentan-2-yl)-1-((R)-1-(3-(8-methoxy-2-(trifluoromethyl)imidazo[1,2-a]pyridin-6-yl)phenyl)ethyl)urea] | 619 | 98.5
CCN(C(=O)N[C@@H](CCC(F)(F)F)C(F)(F)F)[C@H](C)c1cnc(OC)c(-c2cn3ccnc3c(OC)n2)c1 [Example 11-4, 1-ethyl-3-((S)-1,1,1,5,5,5-hexafluoropentan-2-yl)-1-((R)-1-(6-methoxy-5-(8-methoxyimidazo[1,2-a]pyrazin-6-yl)pyridin-3-yl)ethyl)urea] | 0.7 | 101.6
C=CC[C@H](NC(=O)N(CC)C(c1cc(-c2cn3ccnc3c(OC)n2)c(OC)cn1)C(F)(F)F)C(F)(F)F (mixture of isomers) [Example 5-1, 1-ethyl-1-(2,2,2-trifluoro-1-(5-methoxy-4-(8-methoxyimidazo[1,2-a]pyrazin-6-yl)pyridin-2-yl)ethyl)-3-((S)-1,1,1-trifluoropent-4-en-2-yl)urea] | 4.8 | 100.4
CCN(C(=O)N[C@@H](CCC(F)(F)F)C(F)(F)F)[C@H](C)c1cc(-c2cc(OC)c3ncoc3c2)c(OC)cn1 [Example 9-4, 1-ethyl-3-((S)-1,1,1,5,5,5-hexafluoropentan-2-yl)-1-((R)-1-(5-methoxy-4-(4-methoxybenzo[d]oxazol-6-yl)pyridin-2-yl)ethyl)urea] | 7.5 | 99.6
CCN(C(=O)N[C@@H](CCC(F)(F)F)C(F)F)[C@@H](c1cc(-c2cn3cc(C)nc3c(OC)n2)c(OC)cn1)C(F)(F)F [Example 4-1, 1-ethyl-3-((S)-1,1,5,5,5-pentafluoropentan-2-yl)-1-((S)-2,2,2-trifluoro-1-(5-methoxy-4-(8-methoxy-2-methylimidazo[1,2-a]pyrazin-6-yl)pyridin-2-yl)ethyl)urea] | 4.8 | 101.6
CCN(C(=O)NC(CCC(C)=O)C(F)(F)F)[C@H](C)c1cccc(-c2cn3ccnc3c(OC)n2)c1 (stereo partly drawn) [Example 2-54, 1-ethyl-1-((R)-1-(3-(8-methoxyimidazo[1,2-a]pyrazin-6-yl)phenyl)ethyl)-3-(1,1,1-trifluoro-5-oxohexan-2-yl)urea] | 1.6 | 99.4
CCN(C(=O)NC(Cn1nccn1)C(F)(F)F)[C@H](C)c1cccc(-c2cn3ccnc3c(OC)n2)c1 (stereo partly drawn) [Example 1-16, 1-ethyl-1-((R)-1-(3-(8-methoxyimidazo[1,2-a]pyrazin-6-yl)phenyl)ethyl)-3-(1,1,1-trifluoro-3-(2H-1,2,3-triazol-2-yl)propan-2-yl)urea] | 2.8 | 100.1
CCN(C(=O)N[C@@H](CCC(F)(F)F)C(F)(F)F)[C@@H](c1ccc(OC)c(-c2ccc3nccn3c2)c1)C(F)(F)F [Example 2-23, 1-ethyl-3-((S)-1,1,1,5,5,5-hexafluoropentan-2-yl)-1-((S)-2,2,2-trifluoro-1-(3-(imidazo[1,2-a]pyridin-6-yl)-4-methoxyphenyl)ethyl)urea] | 2.7 | 100.8
CC[C@H](CCC(F)(F)F)NC(=O)N(CC)[C@H](C)c1ccc(OC)c(-c2cc(C)c3nccn3c2)c1 [Example 8-3, 1-ethyl-1-((R)-1-(4-methoxy-3-(8-methylimidazo[1,2-a]pyridin-6-yl)phenyl)ethyl)-3-((R)-6,6,6-trifluorohexan-3-yl)urea] | 10.4 | 96.6
CCN(C(=O)NC1CC(C(F)(F)F)C1)[C@@H](c1cc(-c2cn3ccnc3c(OC)n2)c(OC)cn1)C(F)(F)F (stereo partly drawn) [Example 2-38, (S)-1-ethyl-1-(2,2,2-trifluoro-1-(5-methoxy-4-(8-methoxyimidazo[1,2-a]pyrazin-6-yl)pyridin-2-yl)ethyl)-3-(3-(trifluoromethyl)cyclobutyl)urea] | 4.2 | 99.7
CC[C@H](CCC(F)(F)F)NC(=O)N(CC)[C@H](C)c1cccc(-c2cc(OC(F)F)c3nccn3c2)c1 [Example 7-1, 1-((R)-1-(3-(8-(difluoromethoxy)imidazo[1,2-a]pyridin-6-yl)phenyl)ethyl)-1-ethyl-3-((R)-6,6,6-trifluorohexan-3-yl)urea] | 29.3 | 96.8
CCN(C(=O)N[C@@H](CCC(F)(F)F)C(F)(F)F)[C@H](C)c1cc(-c2cn3ccnc3c(OC)n2)c(OC)nn1 [Example 10-3, 1-ethyl-3-((S)-1,1,1,5,5,5-hexafluoropentan-2-yl)-1-((R)-1-(6-methoxy-5-(8-methoxyimidazo[1,2-a]pyrazin-6-yl)pyridazin-3-yl)ethyl)urea] | 0.8 | 101.7
CCN(C(=O)NC(C)c1nc(C)no1)[C@@H](c1cc(-c2cn3ccnc3c(OC)n2)c(OC)cn1)C(F)(F)F (stereo partly drawn) [Example 2-26, 1-ethyl-3-(1-(3-methyl-1,2,4-oxadiazol-5-yl)ethyl)-1-((S)-2,2,2-trifluoro-1-(5-methoxy-4-(8-methoxyimidazo[1,2-a]pyrazin-6-yl)pyridin-2-yl)ethyl)urea] | 8.6 | 100.5
CCN(C(=O)N[C@@H](CCC(F)(F)F)C(F)(F)F)C(c1cc(-c2cn3ccnc3c(OC)n2)cnc1OC)C(F)(F)F (stereo partly drawn) [Example 10-17, 1-ethyl-3-((S)-1,1,1,5,5,5-hexafluoropentan-2-yl)-1-(2,2,2-trifluoro-1-(2-methoxy-5-(8-methoxyimidazo[1,2-a]pyrazin-6-yl)pyridin-3-yl)ethyl)urea] | 88.8 | 100.5
CCN(C(=O)N[C@@H](CCC(F)(F)F)C(F)(F)F)C(C)c1cc(-c2cc(F)c3nccn3c2)c(Cl)cn1 (single isomer, unassigned) [Example 15-1] | 5.8 | 100.5
COc1cnc([C@H](N(C(=O)N[C@@H](CCC(F)(F)F)C(F)(F)F)C2CC2)C(F)(F)F)cc1-c1cn2cc(C)nc2c(OC)n1 [Example 2-19, 1-cyclopropyl-3-((S)-1,1,1,5,5,5-hexafluoropentan-2-yl)-1-(2,2,2-trifluoro-1-(5-methoxy-4-(8-methoxy-2-methylimidazo[1,2-a]pyrazin-6-yl)pyridin-2-yl)ethyl)urea] | 5.7 | 102.0
CCN(C(=O)NC1CC1)[C@@H](c1cc(-c2cn3ccnc3c(OC)n2)c(OC)cn1)C(F)(F)F [Example 2-32, (S)-3-cyclopropyl-1-ethyl-1-(2,2,2-trifluoro-1-(5-methoxy-4-(8-methoxyimidazo[1,2-a]pyrazin-6-yl)pyridin-2-yl)ethyl)urea] | 40.8 | 101.0
CCN(C(=O)NC(C1CC(F)(F)CCN1C)C(F)(F)F)[C@H](C)c1cccc(-c2cc(OC)n3nccc3c2)c1 (stereo partly drawn) [Example 2-53, 3-(1-(4,4-difluoro-1-methylpiperidin-2-yl)-2,2,2-trifluoroethyl)-1-ethyl-1-((R)-1-(3-(7-methoxypyrazolo[1,5-a]pyridin-5-yl)phenyl)ethyl)urea] | 1.5 | 101.6
CCN(C(=O)NC1CC1(F)F)[C@@H](c1cc(-c2cn3ccnc3c(OC)n2)c(OC)cn1)C(F)(F)F (stereo partly drawn) [Example 2-42, 3-(2,2-difluorocyclopropyl)-1-ethyl-1-((S)-2,2,2-trifluoro-1-(5-methoxy-4-(8-methoxyimidazo[1,2-a]pyrazin-6-yl)pyridin-2-yl)ethyl)urea] | 27.8 | 101.7
CCN(C(=O)NCC(F)(F)F)[C@H](C)c1cccc(-c2cn3ccnc3c(OC)n2)c1 [Example 1-5, (R)-1-ethyl-1-(1-(3-(8-methoxyimidazo[1,2-a]pyrazin-6-yl)phenyl)ethyl)-3-(2,2,2-trifluoroethyl)urea] | 73.4 | 94.9
CCN(C(=O)NC(CC#N)C(F)(F)F)[C@H](C)c1cccc(-c2cn3ccnc3c(OC)n2)c1 (stereo partly drawn) [Example 1-14, 3-(3-cyano-1,1,1-trifluoropropan-2-yl)-1-ethyl-1-((R)-1-(3-(8-methoxyimidazo[1,2-a]pyrazin-6-yl)phenyl)ethyl)urea] | 18.5 | 101.3
CCCN(C(=O)N[C@H](CC)CCC(F)(F)F)[C@H](C)c1cccc(-c2cn3ccnc3c(OC)n2)c1 [Example 2-59, 1-((R)-1-(3-(8-methoxyimidazo[1,2-a]pyrazin-6-yl)phenyl)ethyl)-1-propyl-3-((R)-6,6,6-trifluorohexan-3-yl)urea] | 20.9 | 100.2
CCN(C(=O)NC(CC(F)(F)F)C1CC1)C(c1cc(-c2cn3ccnc3c(OC)n2)c(OC)cn1)C(F)(F)F (stereo not shown) [Example 6-3, 3-(1-cyclopropyl-3,3,3-trifluoropropyl)-1-ethyl-1-(2,2,2-trifluoro-1-(5-methoxy-4-(8-methoxyimidazo[1,2-a]pyrazin-6-yl)pyridin-2-yl)ethyl)urea] | 13.6 | 100.2
